Reference: the NIST ThermoML archive (doi:10.1021/je049960h)
Numbers after ± are expanded uncertainties.

Assay: xn = mol fraction of the nth substance listed
Conditions: 101.3 kPa, Liquid; for viscosity: Capillary tube (Ostwald / Ubbelohde) method; for mass density: Pycnometric method; for thermal conductivity: Hot wire method

## OCCCOCCCO [4-oxa-1,7-heptanediol] + O
293.4 K, x1 = 0.5
  viscosity: 59.9 ± 1.2 mPa·s
  mass density: 1034 ± 2 kg/m3
293.9 K, x1 = 0.75
  viscosity: 88.5 ± 2 mPa·s
  mass density: 1028 ± 2 kg/m3
295.05 K, x1 = 0.25
  viscosity: 22.3 ± 0.5 mPa·s
  mass density: 1040 ± 2 kg/m3
297.8 K, x1 = 0.25
  thermal conductivity: 0.248 ± 0.005 W/m/K
297.9 K, x1 = 0.5
  thermal conductivity: 0.19 ± 0.004 W/m/K
298.4 K, x1 = 0.75
  thermal conductivity: 0.167 ± 0.003 W/m/K
313.05 K, x1 = 0.25
  viscosity: 9.14 ± 0.19 mPa·s
  mass density: 1026 ± 2 kg/m3
313.05 K, x1 = 0.5
  viscosity: 18.6 ± 0.4 mPa·s
  mass density: 1019 ± 2 kg/m3
313.05 K, x1 = 0.75
  viscosity: 25.8 ± 0.6 mPa·s
  mass density: 1013 ± 2 kg/m3
323.9 K, x1 = 0.25
  thermal conductivity: 0.256 ± 0.005 W/m/K
324.8 K, x1 = 0.75
  thermal conductivity: 0.169 ± 0.003 W/m/K
324.9 K, x1 = 0.5
  thermal conductivity: 0.193 ± 0.004 W/m/K
333.1 K, x1 = 0.25
  viscosity: 4.3 ± 0.09 mPa·s
  mass density: 1010 ± 2 kg/m3
333.1 K, x1 = 0.5
  viscosity: 7.68 ± 0.16 mPa·s
  mass density: 1003 ± 2 kg/m3
333.1 K, x1 = 0.75
  viscosity: 9.71 ± 0.21 mPa·s
  mass density: 997 ± 2.1 kg/m3
349.3 K, x1 = 0.5
  thermal conductivity: 0.195 ± 0.004 W/m/K
349.9 K, x1 = 0.25
  thermal conductivity: 0.26 ± 0.005 W/m/K
350.1 K, x1 = 0.75
  thermal conductivity: 0.167 ± 0.003 W/m/K
353.1 K, x1 = 0.25
  viscosity: 2.42 ± 0.05 mPa·s
  mass density: 992.8 ± 2 kg/m3
353.1 K, x1 = 0.5
  viscosity: 3.89 ± 0.08 mPa·s
  mass density: 986 ± 2 kg/m3
353.1 K, x1 = 0.75
  viscosity: 4.71 ± 0.1 mPa·s
  mass density: 980.5 ± 2 kg/m3
368.25 K, x1 = 0.25
  viscosity: 1.72 ± 0.04 mPa·s
  mass density: 979.2 ± 2 kg/m3
372.2 K, x1 = 0.5
  viscosity: 2.33 ± 0.05 mPa·s
  mass density: 969.5 ± 2 kg/m3
372.2 K, x1 = 0.75
  viscosity: 2.73 ± 0.06 mPa·s
  mass density: 964.3 ± 2 kg/m3
374 K, x1 = 0.25
  thermal conductivity: 0.264 ± 0.005 W/m/K
374.9 K, x1 = 0.5
  thermal conductivity: 0.196 ± 0.004 W/m/K
375.1 K, x1 = 0.75
  thermal conductivity: 0.169 ± 0.003 W/m/K
378.75 K, x1 = 0.25
  viscosity: 1.41 ± 0.03 mPa·s
382.5 K, x1 = 0.5
  viscosity: 1.85 ± 0.04 mPa·s
  mass density: 960.1 ± 2 kg/m3
382.5 K, x1 = 0.75
  viscosity: 2.14 ± 0.05 mPa·s
  mass density: 955.2 ± 2 kg/m3
392.3 K, x1 = 0.75
  viscosity: 1.72 ± 0.04 mPa·s
  mass density: 946.2 ± 2 kg/m3
392.4 K, x1 = 0.5
  viscosity: 1.53 ± 0.03 mPa·s
  mass density: 951 ± 2 kg/m3
394.25 K, x1 = 0.5
  mass density: 949.4 ± 2 kg/m3
395.75 K, x1 = 0.5
  viscosity: 1.45 ± 0.03 mPa·s
395.95 K, x1 = 0.25
  mass density: 953.1 ± 2 kg/m3
397.45 K, x1 = 0.25
  viscosity: 0.983 ± 0.021 mPa·s
398.6 K, x1 = 0.25
  thermal conductivity: 0.263 ± 0.005 W/m/K
398.9 K, x1 = 0.5
  thermal conductivity: 0.195 ± 0.004 W/m/K
399 K, x1 = 0.75
  thermal conductivity: 0.169 ± 0.003 W/m/K
402.3 K, x1 = 0.75
  viscosity: 1.43 ± 0.03 mPa·s
  mass density: 936.9 ± 2 kg/m3
405.35 K, x1 = 0.75
  mass density: 934.5 ± 2 kg/m3
406.85 K, x1 = 0.75
  viscosity: 1.33 ± 0.03 mPa·s
407.85 K, x1 = 0.5
  mass density: 936.8 ± 1.9 kg/m3
408.35 K, x1 = 0.25
  mass density: 941.3 ± 1.9 kg/m3
410.85 K, x1 = 0.5
  viscosity: 1.11 ± 0.02 mPa·s
411.35 K, x1 = 0.25
  viscosity: 0.803 ± 0.017 mPa·s
418.35 K, x1 = 0.75
  mass density: 923 ± 1.9 kg/m3
421.35 K, x1 = 0.75
  viscosity: 1.05 ± 0.02 mPa·s
423.8 K, x1 = 0.25
  thermal conductivity: 0.264 ± 0.005 W/m/K
424.3 K, x1 = 0.75
  thermal conductivity: 0.167 ± 0.003 W/m/K
424.4 K, x1 = 0.5
  thermal conductivity: 0.193 ± 0.004 W/m/K
426.35 K, x1 = 0.5
  mass density: 918.8 ± 1.9 kg/m3
426.75 K, x1 = 0.25
  mass density: 922.7 ± 1.9 kg/m3
429.35 K, x1 = 0.5
  viscosity: 0.829 ± 0.017 mPa·s
429.75 K, x1 = 0.25
  viscosity: 0.63 ± 0.013 mPa·s
437.25 K, x1 = 0.75
  mass density: 904.2 ± 1.9 kg/m3
440.25 K, x1 = 0.75
  viscosity: 0.795 ± 0.017 mPa·s
444.65 K, x1 = 0.25
  mass density: 904.1 ± 1.9 kg/m3
445.25 K, x1 = 0.5
  mass density: 899.1 ± 1.9 kg/m3
447.65 K, x1 = 0.25
  viscosity: 0.512 ± 0.011 mPa·s
448.25 K, x1 = 0.5
  viscosity: 0.64 ± 0.014 mPa·s
448.8 K, x1 = 0.5
  thermal conductivity: 0.187 ± 0.004 W/m/K
448.9 K, x1 = 0.75
  thermal conductivity: 0.163 ± 0.003 W/m/K
455.15 K, x1 = 0.75
  mass density: 887.2 ± 1.9 kg/m3
458.15 K, x1 = 0.75
  viscosity: 0.641 ± 0.014 mPa·s
